Laboratory results from US20200069691A1, “HETEROCYCLIC COMPOUNDS AS HIV PROTEASE INHIBITORS” (Merck Sharp & Dohme Corp., priority 2016, published 2020).

Biological target: T1, wild-type HIV-1 protease (Human immunodeficiency virus type 1 group M subtype B, UniProt P04585)
T1 construct: Escherichia coli expressed wild-type HIV-1 protease protein
Assay: Assay for Inhibition of Microbial Expressed HIV Protease (peptide substrate cleavage, LC-MS/MS readout)
Type: biochemical
Conditions: E. coli expressed wild-type HIV-1 protease, mean of at least two independent experiments, read-out: HIV Pr Enzyme HIV1 PR IC50
Procedure, shortened: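 E. coli-expressed wild-type HIV-1 protease ([…]) was preincubated with inhibitor 30 min at room temperature in pH 5.5 acetate buffer (100 mM NaCl, 0.1% BSA). Then 400 μM octapeptide substrate was added and reacted 1 h at 30 °C; inhibition came from LC-MS/MS product peak areas, mean of ≥2 experiments.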

Row | SMILES | IC50
1 | N=C1N[C@](CCCC(F)(F)F)(c2ccc(F)cc2)C(=O)N1Cc1ccc(C(F)(F)F)c(C(=O)N2Cc3cnc(-c4cncnc4)nc3C2)c1 [Compound 49, (5R)-5-(4-fluorophenyl)-2-imino-3-{3-[(2-pyrimidin-5-yl-5,7-dihydro-6H-pyrrolo[3,4-d]pyrimidin-6-yl)carbonyl]-4-(trifluoromethyl)-benzyl}-5-(4,4,4-trifluorobutyl)-imidazolidin-4-one] | 5.43 nM
2 | CSc1nnc2n1CCN(C(=O)c1cc(CN3C(=N)N[C@](CCCC(F)(F)F)(c4ccc(F)cc4)C3=O)ccc1C(F)(F)F)C2 [Compound 50, (5R)-5-(4-fluorophenyl)-2-imino-3-[3-{[3-(methylsulfanyl)-5,6-dihydro[1,2,4]triazolo[4,3-a]pyrazin-7(8H)-yl]carbonyl}-4-(trifluoromethyl)benzyl]-5-(4,4,4-trifluorobutyl)imidazolidin-4-one] | 5.49 nM
3 | CC(C)Nc1ncc2c(n1)CN(C(=O)c1cc(CN3C(=N)N[C@](CCCC(F)(F)F)(c4ccc(F)cc4)C3=O)ccc1C(F)(F)F)C2 [Compound 51, (5R)-5-(4-fluorophenyl)-2-imino-3-[3-({2-[(1-methylethyl)amino]-5,7-dihydro-6H-pyrrolo[3,4-d]pyrimidin-6-yl}carbonyl)-4-(trifluoromethyl)benzyl]-5-(4,4,4-trifluorobutyl)imidazolidin-4-one] | 5.51 nM
4 | COc1cc(-c2ncc3c(n2)CN(C(=O)c2cc(CN4C(=N)N[C@](CCCC(F)(F)F)(c5ccc(F)cc5)C4=O)ccc2C(F)(F)F)C3)ccn1 [Compound 52, (5R)-5-(4-fluorophenyl)-2-imino-3-[3-{[2-(2-methoxypyridin-4-yl)-5,7-dihydro-6H-pyrrolo[3,4-d]pyrimidin-6-yl]carbonyl}-4-(trifluoromethyl)benzyl]-5-(4,4,4-trifluorobutyl)imidazolidin-4-one] | 5.58 nM
5 | N=C1N[C@](CCCC(F)(F)F)(c2ccc(F)cc2)C(=O)N1Cc1ccc(C(F)(F)F)c(C(=O)N2Cc3cnc(-c4ccncc4)nc3C2)c1 [Compound 53, (5R)-5-(4-fluorophenyl)-2-imino-3-{3-[(2-pyridin-4-yl-5,7-dihydro-6H-pyrrolo[3,4-d]pyrimidin-6-yl)carbonyl]-4-(trifluoromethyl)-benzyl}-5-(4,4,4-trifluorobutyl)-imidazolidin-4-one] | 5.63 nM
6 | CC(C)CC[C@]1(c2ccc(F)cc2)NC(=N)N(C(Cc2ccccc2)c2ccc(C(F)(F)F)c(C(=O)N3CCn4c(nnc4C(F)(F)F)C3)c2)C1=O (stereo partly drawn) [Compound 54, (5R)-5-(4-fluorophenyl)-2-imino-5-(3-methylbutyl)-3-{2-phenyl-1-[4-(trifluoromethyl)-3-{[3-(trifluoromethyl)-5,6-dihydro-[1,2,4]triazolo[4,3-a]pyrazin-7(8H)-yl]carbonyl}phenyl]ethyl} imidazolidin-4-one] | 5.65 nM
7 | N=C1N[C@](CCCC(F)(F)F)(c2ccc(F)cc2)C(=O)N1Cc1ccc(C(F)(F)F)c(C(=O)N2Cc3cnc(-c4ccc5cnccc5c4)nc3C2)c1 [Compound 55, (5R)-5-(4-fluorophenyl)-2-imino-3-{3-[(2-isoquinolin-6-yl-5,7-dihydro-6H-pyrrolo[3,4-d]pyrimidin-6-yl)carbonyl]-4-(trifluoromethyl)-benzyl}-5-(4,4,4-trifluorobutyl)-imidazolidin-4-one] | 5.99 nM
8 | CC(C)CC[C@]1(c2ccc(F)cc2)NC(=N)N(C(CCCc2ccccc2)c2ccc(C(F)(F)F)c(C(=O)N3CCn4c(nnc4C(F)(F)F)C3)c2)C1=O (stereo partly drawn) [Compound 56, (5R)-5-(4-fluorophenyl)-2-imino-5-(3-methylbutyl)-3-{4-phenyl-1-[4-(trifluoromethyl)-3-{[3-(trifluoromethyl)-5,6-dihydro[1,2,4]-triazolo[4,3-a]pyrazin-7(8H)-yl]carbonyl}-phenyl]butyl}imidazolidin-4-one] | 6.19 nM
9 | N=C1N[C@](CCCC(F)(F)F)(c2ccc(F)cc2)C(=O)N1Cc1ccc(C(F)(F)F)c(C(=O)N2Cc3cnc(N)nc3C2)c1 [Compound 57, (5R)-3-{3-[(2-amino-5,7-dihydro-6H-pyrrolo[3,4-d]pyrimidin-6-yl)carbonyl]-4-(trifluoromethyl)-benzyl}-5-(4-fluorophenyl)-2-imino-5-(4,4,4-trifluorobutyl)-imidazolidin-4-one] | 6.24 nM
10 | N#Cc1ncc2c(n1)CN(C(=O)c1cc(CN3C(=N)N[C@](CCCC(F)(F)F)(c4ccc(F)cc4)C3=O)ccc1C(F)(F)F)C2 [Compound 58, 6-{[5-{[(4R)-4-(4-fluorophenyl)-2-imino-5-oxo-4-(4,4,4-trifluorobutyl)imidazolidin-1-yl]methyl}-2-(trifluoromethyl)-phenyl]carbonyl}-6,7-dihydro-5H-pyrrolo[3,4-d] pyrimidine-2-carbonitrile] | 6.43 nM
11 | CC(=O)c1cccc(-c2ncc3c(n2)CN(C(=O)c2cc(CN4C(=N)N[C@](CCCC(F)(F)F)(c5ccc(F)cc5)C4=O)ccc2C(F)(F)F)C3)c1 [Compound 59, (5R)-3-[3-{[2-(3-acetylphenyl)-5,7-dihydro-6H-pyrrolo[3,4-d]pyrimidin-6-yl]carbonyl}-4-(trifluoromethyl)benzyl]-5-(4-fluorophenyl)-2-imino-5-(4,4,4-trifluorobutyl)imidazolidin-4-one] | 6.45 nM
12 | Cc1nocc1-c1ncc2c(n1)CN(C(=O)c1cc(CN3C(=N)N[C@](CCCC(F)(F)F)(c4ccc(F)cc4)C3=O)ccc1C(F)(F)F)C2 [Compound 60, (5R)-5-(4-fluorophenyl)-2-imino-3-[3-{[2-(3-methylisoxazol-4-yl)-5,7-dihydro-6H-pyrrolo[3,4-d]pyrimidin-6-yl]carbonyl}-4-(trifluoromethyl)benzyl]-5-(4,4,4-trifluorobutyl)imidazolidin-4-one] | 6.55 nM
13 | N#CCc1ccc(-c2ncc3c(n2)CN(C(=O)c2cc(CN4C(=N)N[C@](CCCC(F)(F)F)(c5ccc(F)cc5)C4=O)ccc2C(F)(F)F)C3)cn1 [Compound 61, [5-(6-{[5-{[(4R)-4-(4-fluorophenyl)-2-imino-5-oxo-4-(4,4,4-trifluorobutyl)imidazolidin-1-yl]methyl}-2-(trifluoromethyl)-phenyl]carbonyl}-6,7-dihydro-5H-pyrrolo[3,4-d]pyrimidin-2-yl)pyridin-2-yl]acetonitrile] | 6.6 nM
14 | N=C1N[C@](CCCC(F)(F)F)(c2ccc(F)cc2)C(=O)N1Cc1ccc(C(F)(F)F)c(C(=O)N2Cc3cnc(-c4cccc(N5CCCC5)c4)nc3C2)c1 [Compound 62, (5R)-5-(4-fluorophenyl)-2-imino-3-[3-{[2-(3-pyrrolidin-1-ylphenyl)-5,7-dihydro-6H-pyrrolo[3,4-d]pyrimidin-6-yl]carbonyl}-4-(trifluoromethyl)benzyl]-5-(4,4,4-trifluorobutyl)imidazolidin-4-one] | 6.86 nM
15 | N=C1N[C@](CCCC(F)(F)F)(c2ccc(F)cc2)C(=O)N1Cc1ccc(C(F)(F)F)c(C(=O)N2Cc3cnc(-c4ccsc4)nc3C2)c1 [Compound 63, (5R)-5-(4-fluorophenyl)-2-imino-3-{3-[(2-thiophen-3-yl-5,7-dihydro-6H-pyrrolo[3,4-d]pyrimidin-6-yl)carbonyl]-4-(trifluoromethyl)-benzyl}-5-(4,4,4-trifluorobutyl)-imidazolidin-4-one] | 6.94 nM
16 | Cc1noc2ccc(-c3ncc4c(n3)CN(C(=O)c3cc(CN5C(=N)N[C@](CCCC(F)(F)F)(c6ccc(F)cc6)C5=O)ccc3C(F)(F)F)C4)cc12 [Compound 64, (5R)-5-(4-fluorophenyl)-2-imino-3-[3-{[2-(3-methyl-1,2-benzisoxazol-5-yl)-5,7-dihydro-6H-pyrrolo[3,4-d]pyrimidin-6-yl]carbonyl}-4-(trifluoromethyl)benzyl]-5-(4,4,4-trifluorobutyl)imidazolidin-4-one] | 7.09 nM
17 | CCc1nnc2n1CCN(C(=O)c1cc(CN3C(=N)N[C@](CCCC(F)(F)F)(c4ccc(F)cc4)C3=O)ccc1C(F)(F)F)C2 [Compound 65, (5R)-3-{3-[(3-ethyl-5,6-dihydro[1,2,4]triazolo[4,3-a]pyrazin-7(8H)-yl)carbonyl]-4-(trifluoromethyl)benzyl}-5-(4-fluorophenyl)-2-imino-5-(4,4,4-trifluorobutyl)imidazolidin-4-one] | 7.39 nM
18 | CN(C)S(=O)(=O)c1cccc(-c2ncc3c(n2)CN(C(=O)c2cc(CN4C(=N)N[C@](CCCC(F)(F)F)(c5ccc(F)cc5)C4=O)ccc2C(F)(F)F)C3)c1 [Compound 66, 3-(6-{[5-{[(4R)-4-(4-fluorophenyl)-2-imino-5-oxo-4-(4,4,4-trifluorobutyl)imidazolidin-1-yl]methyl}-2-(trifluoromethyl)-phenyl]carbonyl}-6,7-dihydro-5H-pyrrolo[3,4-d]pyrimidin-2-yl)-N,N-dimethylbenzene-sulfonamide] | 7.73 nM
19 | N=C1N[C@](CCCC(F)(F)F)(c2ccc(F)cc2)C(=O)N1Cc1ccc(C(F)(F)F)c(C(=O)N2Cc3cnc(-c4cccc(C(=O)N5CCSCC5)c4)nc3C2)c1 [Compound 67, (5R)-5-(4-fluorophenyl)-2-imino-3-[3-({2-[3-(thiomorpholin-4-ylcarbonyl)phenyl]-5,7-dihydro-6H-pyrrolo[3,4-d]pyrimidin-6-yl}carbonyl)-4-(trifluoromethyl)-benzyl]-5-(4,4,4-trifluorobutyl)-imidazolidin-4-one] | 7.87 nM
20 | CNc1ncc2c(n1)CN(C(=O)c1cc(CN3C(=N)N[C@](CCCC(F)(F)F)(c4ccc(F)cc4)C3=O)ccc1C(F)(F)F)C2 [Compound 68, (5R)-5-(4-fluorophenyl)-2-imino-3-[3-{[2-(methylamino)-5,7-dihydro-6H-pyrrolo[3,4-d]pyrimidin-6-yl]carbonyl}-4-(trifluoromethyl)-benzyl]-5-(4,4,4-trifluorobutyl)-imidazolidin-4-one] | 8.3 nM
